# Values of other authors, collected in patent US7968117B1, “Externally triggered microcapsules” (The United States of America as represented by the …, priority 1994, dated 2011).
# Legend:
# [1] = dogs' brain, artificially heated region
# [2] = preferred value within the printed range
SMILES,heating temperature of the brain regions showing extravasation of Eb [1],HLB (preferred) [2]
"Cc1cc(-c2ccc(/N=N/c3ccc4c(S(=O)(=O)[O-])cc(S(=O)(=O)[O-])c(N)c4c3O)c(C)c2)ccc1/N=N/c1ccc2c(S(=O)(=O)[O-])cc(S(=O)(=O)[O-])c(N)c2c1O.[Na+].[Na+].[Na+].[Na+] [free Eb, Evans blue dye]",greater than 44 °C,
"CCCCCCCCCCCCCCCCCC(=O)OCC(O)CO (centres unmarked) [Glycerol Monostearate (gms), Glycerol Monostearate]",,(3.8 preferred)
